Reference: PubChem BioAssay (NCI)
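Method: 48-hour compound exposure of cells in 96-well plates, five concentrations, linear interpolation of endpoints. Here, GI50 denotes the concentration required for 50% inhibition of growth. Definition used: TGI = concentration required for complete inhibition of growth.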

Key:
Experiment in all cases: inhibition of tumour cell growth, NCI panel, 48 h
K-562 leukemia = test system: K-562 leukemia
SW-620 colon = test system: SW-620 colon
HOP-92 NSCLC = test system: HOP-92 NSCLC
SF-539 CNS = test system: SF-539 CNS
MOLT-4 leukemia = test system: MOLT-4 leukemia
ACHN renal = test system: ACHN renal
LOX IMVI melanoma = test system: LOX IMVI melanoma
NCI-H23 lung = test system: NCI-H23 lung
SK-MEL-5 melanoma = test system: SK-MEL-5 melanoma
EKVX NSCLC = test system: EKVX NSCLC
786-0 renal = test system: 786-0 renal
SR leukemia = test system: SR leukemia
NCI-H226 lung = test system: NCI-H226 lung
SK-MEL-2 melanoma = test system: SK-MEL-2 melanoma
BT-549 breast = test system: BT-549 breast
TK-10 renal = test system: TK-10 renal
CCRF-CEM leukemia = test system: CCRF-CEM leukemia
NCI-H522 lung = test system: NCI-H522 lung
RXF 393 renal = test system: RXF 393 renal
UACC-62 melanoma = test system: UACC-62 melanoma
UACC-257 melanoma = test system: UACC-257 melanoma
A498 renal = test system: A498 renal
OVCAR-8 ovarian = test system: OVCAR-8 ovarian
OVCAR-5 ovarian = test system: OVCAR-5 ovarian
SN12C renal = test system: SN12C renal
KM12 colon = test system: KM12 colon
OVCAR-4 ovarian = test system: OVCAR-4 ovarian
PC-3 prostate = test system: PC-3 prostate
SK-MEL-28 melanoma = test system: SK-MEL-28 melanoma

CCN(CC)CCOc1ccc(C(=C(C)c2ccc(OC)cc2)c2ccc(OCCN(CC)CC)cc2)cc1
GI50 (K-562 leukemia): 874 nM | TGI (K-562 leukemia): 3800 nM | GI50 (SW-620 colon): 936 nM | TGI (SW-620 colon): 2020 nM | GI50 (HOP-92 NSCLC): 627 nM | TGI (HOP-92 NSCLC): 1890 nM | GI50 (SF-539 CNS): 875 nM | TGI (SF-539 CNS): 1650 nM | GI50 (MOLT-4 leukemia): 1340 nM | TGI (MOLT-4 leukemia): 5250 nM | GI50 (ACHN renal): 1140 nM | TGI (ACHN renal): 2750 nM | GI50 (LOX IMVI melanoma): 530 nM | TGI (LOX IMVI melanoma): 1220 nM | GI50 (NCI-H23 lung): 1470 nM | TGI (NCI-H23 lung): 5520 nM | GI50 (SK-MEL-5 melanoma): 873 nM | TGI (SK-MEL-5 melanoma): 1630 nM | GI50 (EKVX NSCLC): 2010 nM | TGI (EKVX NSCLC): 8150 nM | GI50 (786-0 renal): 761 nM | TGI (786-0 renal): 1800 nM | GI50 (SR leukemia): 289 nM | TGI (SR leukemia): 50000 nM | GI50 (NCI-H226 lung): 2430 nM | TGI (NCI-H226 lung): 10300 nM | GI50 (SK-MEL-2 melanoma): 1030 nM | TGI (SK-MEL-2 melanoma): 2140 nM | GI50 (BT-549 breast): 1030 nM | TGI (BT-549 breast): 2920 nM | GI50 (TK-10 renal): 1150 nM | TGI (TK-10 renal): 3280 nM | GI50 (CCRF-CEM leukemia): 1260 nM | TGI (CCRF-CEM leukemia): 5870 nM | GI50 (NCI-H522 lung): 1010 nM | TGI (NCI-H522 lung): 2240 nM | GI50 (RXF 393 renal): 738 nM | TGI (RXF 393 renal): 1500 nM | GI50 (UACC-62 melanoma): 887 nM | TGI (UACC-62 melanoma): 1700 nM | GI50 (UACC-257 melanoma): 942 nM | TGI (UACC-257 melanoma): 1880 nM | GI50 (A498 renal): 997 nM | TGI (A498 renal): 2470 nM | GI50 (OVCAR-8 ovarian): 1680 nM | TGI (OVCAR-8 ovarian): 6370 nM | GI50 (OVCAR-5 ovarian): 1570 nM | TGI (OVCAR-5 ovarian): 5680 nM | GI50 (SN12C renal): 972 nM | TGI (SN12C renal): 2400 nM | GI50 (KM12 colon): 1800 nM | TGI (KM12 colon): 6950 nM | GI50 (OVCAR-4 ovarian): 1060 nM | TGI (OVCAR-4 ovarian): 2460 nM | GI50 (PC-3 prostate): 1180 nM | TGI (PC-3 prostate): 4290 nM | GI50 (SK-MEL-28 melanoma): 856 nM | TGI (SK-MEL-28 melanoma): 1620 nM
